From US9556228B2 (Universitaet Leipzig, priority 2011, dated 2017)
In brackets after ≈: the same amount, converted by molar mass. Peptide text beside a SMILES is read from it.

Tests used:
Type in all cases: cell-based
[1] = tested on: Pseudomonas aeruginosa PAO1 (wt strain); details: for Improvement over Native Sequence (SEQ No. 2) P. aeruginosa PAO1 wt: fold, from MIC in 1/8 MHB
Protocol: (§1) The minimum inhibitory concentrations (MIC) of the peptides were determined in a double assay of triplicates using a positive control sample (gentamycin) and a negative control sample (0.9% NaCl solution), according to a modified protocol from Wiegand et al. (Wiegand, 2008).
(§2) For this purpose, the peptides were dissolved in water and were diluted in a double dilution series with 1/8 MH (eight-fold diluted Mueller-Hinton-Medium—2.6 g/L, Merck) in sterile 96-well, plates (Greiner Bio-One GmbH) in twelve dilution steps from 128 μg/mL to 62.5 ng/mL. Overnight cultures were adjusted using ⅛ MHB to approximately 1.5×10^7 colony forming units per mL. Of these, 50 μL of peptide solution per well was mixed with 50 μL bacteria solution each to obtain an initial concentration of […] bacteria per well. After 20 hours of incubation at 37′C, the absorption was determined at 595 nm (microplate reader, Wallac Victor3, Perkin Elmer). The minimum inhibitory concentration was identified as the lowest peptide concentration at which no bacterial growth could be detected.
(§3) In the experiment, the antibacterial activity of the peptides according to the invention in relation to the following bacterial strains was analyzed: Pseudomonas aeruginosa PAO1 (wt strain), Pseudomonas aeruginosa DSM 9644, Staphylococcus aureus DSM 1104/ATCC 25923, Staphylococcus aureus ATCC 6247, Escherichia coli UB 1005 (F—, nalA37, metB1) and Escherichia coli ATCC25922.

[2] = tested on: Staphylococcus aureus DSM 1104/ATCC 25923; details: for MIC S. aureus ATCC 25923: DSM 1104; for Improvement over Native Sequence (SEQ No. 2) S. aureus ATCC 25923: fold, from MIC in 1/8 MHB
Protocol: as §1, §2, §3

[3] = tested on: Escherichia coli UB 1005; experiment: Minimum inhibitory concentration (MIC), broth microdilution; details: for MIC E. coli UB1005: 1/8 MHB, Table 4; for Improvement over Native Sequence (SEQ No. 2) E. coli UB1005: fold, from MIC in 1/8 MHB
Protocol: as §1, §2, §3

Row | Structure (SMILES) | MIC P. aeruginosa PAO1 wt [1] | Improvement over Native Sequence (SEQ No. 2) P. aeruginosa PAO1 wt [1] | MIC S. aureus ATCC 25923 [2] | Improvement over Native Sequence (SEQ No. 2) S. aureus ATCC 25923 [2] | MIC E. coli UB1005 [3] | Improvement over Native Sequence (SEQ No. 2) E. coli UB1005 [3]
1 | CC[C@H](C)[C@H](NC(=O)[C@H](Cc1ccc(O)cc1)NC(=O)[C@@H](NC(=O)[C@@H]1CCCN1C(=O)[C@H](CCCNC(=N)N)NC(=O)[C@H](CC(N)=O)NC(=O)[C@H](Cc1c[nH]c2ccccc12)NC(=O)CN)C(C)C)C(=O)N1CCC[C@H]1C(=O)N[C@@H](CCC(N)=O)C(=O)N1CCC[C@H]1C(=O)N[C@@H](CCCNC(=N)N)C(=O)N1CCC[C@H]1C(=O)N1CCC[C@H]1C(=O)N[C@@H](Cc1c[nH]cn1)C(=O)N1CCC[C@H]1C(=O)N[C@@H](CCCNC(=N)N)C(=O)N[C@@H](CC(C)C)C(N)=O [compound 54] (H-GWNRPVYIPQPRPPHPRL-NH2; N-terminus assumed) | 64 µg/mL (≈ 29.4 µM) | 8 | 63 µg/mL (≈ 28.9 µM) | 4 | 1.25 µg/mL (≈ 0.574 µM) | 4
2 | CC[C@H](C)[C@H](NC(=O)[C@H](Cc1ccc(O)cc1)NC(=O)[C@@H](NC(=O)[C@@H]1CCCN1C(=O)[C@H](CCCNC(=N)N)NC(=O)[C@H](CC(N)=O)NC(=O)[C@H](CCCNC(=N)N)NC(=O)CN)C(C)C)C(=O)N1CCC[C@H]1C(=O)N[C@@H](CCC(N)=O)C(=O)N1CCC[C@H]1C(=O)N[C@@H](CCCNC(=N)N)C(=O)N1CCC[C@H]1C(=O)N1CCC[C@H]1C(=O)N[C@@H](Cc1c[nH]cn1)C(=O)N1CCC[C@H]1C(=O)N[C@@H](CCCNC(=N)N)C(=O)N[C@@H](CC(C)C)C(N)=O [compound 55] (H-GRNRPVYIPQPRPPHPRL-NH2; N-terminus assumed) | 64 to 128 µg/mL | 4-8 | 32 µg/mL (≈ 14.9 µM) | 8 | 0.625 µg/mL (≈ 0.291 µM) | 8
3 | CC[C@H](C)[C@H](NC(=O)[C@H](Cc1ccc(O)cc1)NC(=O)[C@@H](NC(=O)[C@H](CS)NC(=O)[C@H](CCCNC(=N)N)NC(=O)[C@H](CC(N)=O)NC(=O)[C@H](CC(N)=O)NC(=O)CN)C(C)C)C(=O)N1CCC[C@H]1C(=O)N[C@@H](CCC(N)=O)C(=O)N1CCC[C@H]1C(=O)N[C@@H](CCCNC(=N)N)C(=O)N1CCC[C@H]1C(=O)N1CCC[C@H]1C(=O)N[C@@H](Cc1c[nH]cn1)C(=O)N1CCC[C@H]1C(=O)N[C@@H](CCCNC(=N)N)C(=O)N[C@@H](CC(C)C)C(N)=O [compound 56] (H-GNNRCVYIPQPRPPHPRL-NH2; N-terminus assumed) | 125 µg/mL (≈ 59.1 µM) | 4 | 31 µg/mL (≈ 14.7 µM) | 8 | 10 µg/mL (≈ 4.73 µM) | 1
4 | CC[C@H](C)[C@H](NC(=O)[C@H](Cc1ccc(O)cc1)NC(=O)[C@@H](NC(=O)[C@H](CCCNC(=N)N)NC(=O)[C@H](CCCNC(=N)N)NC(=O)[C@H](CC(N)=O)NC(=O)[C@H](CC(N)=O)NC(=O)CN)C(C)C)C(=O)N1CCC[C@H]1C(=O)N[C@@H](CCC(N)=O)C(=O)N1CCC[C@H]1C(=O)N[C@@H](CCCNC(=N)N)C(=O)N1CCC[C@H]1C(=O)N1CCC[C@H]1C(=O)N[C@@H](Cc1c[nH]cn1)C(=O)N1CCC[C@H]1C(=O)N[C@@H](CCCNC(=N)N)C(=O)N[C@@H](CC(C)C)C(N)=O [compound 57] (H-GNNRRVYIPQPRPPHPRL-NH2; N-terminus assumed) | 64 µg/mL (≈ 29.5 µM) | 8 | 32 µg/mL (≈ 14.8 µM) | 8 | 5 µg/mL (≈ 2.31 µM) | 1
5 | CC(C)C[C@H](NC(=O)[C@H](CCCNC(=N)N)NC(=O)[C@@H]1CCCN1C(=O)[C@H](Cc1c[nH]cn1)NC(=O)[C@@H]1CCCN1C(=O)[C@@H]1CCCN1C(=O)[C@H](CCCNC(=N)N)NC(=O)[C@@H]1CCCN1C(=O)[C@H](CCC(N)=O)NC(=O)[C@@H]1CCCN1C(=O)[C@H](CCCNC(=N)N)NC(=O)[C@H](Cc1ccc(O)cc1)NC(=O)[C@@H](NC(=O)[C@@H]1CCCN1C(=O)[C@H](CCCNC(=N)N)NC(=O)[C@H](CC(N)=O)NC(=O)[C@H](CC(N)=O)NC(=O)CN)C(C)C)C(N)=O [compound 58] (H-GNNRPVYRPQPRPPHPRL-NH2; N-terminus assumed) | 64 µg/mL (≈ 29.8 µM) | 8 | 63 µg/mL (≈ 29.3 µM) | 4 | 0.313 µg/mL (≈ 0.146 µM) | 16
6 | CC[C@H](C)[C@H](NC(=O)[C@H](Cc1ccc(O)cc1)NC(=O)[C@@H](NC(=O)[C@@H]1CCCN1C(=O)[C@H](CCCNC(=N)N)NC(=O)[C@H](CC(N)=O)NC(=O)[C@H](CC(N)=O)NC(=O)CN)C(C)C)C(=O)N1CCC[C@H]1C(=O)N[C@@H](CCC(N)=O)C(=O)N1CCC[C@H]1C(=O)N[C@@H](CCCNC(=N)N)C(=O)N[C@@H](CCCNC(=N)N)C(=O)N1CCC[C@H]1C(=O)N[C@@H](Cc1c[nH]cn1)C(=O)N1CCC[C@H]1C(=O)N[C@@H](CCCNC(=N)N)C(=O)N[C@@H](CC(C)C)C(N)=O [compound 59] (H-GNNRPVYIPQPRRPHPRL-NH2; N-terminus assumed) | 125 µg/mL (≈ 57.7 µM) | 4 | 31 µg/mL (≈ 14.3 µM) | 8 | 10 µg/mL (≈ 4.62 µM) | 1
7 | CC[C@H](C)[C@H](NC(=O)[C@H](Cc1ccc(O)cc1)NC(=O)[C@@H](NC(=O)[C@@H]1CCCN1C(=O)[C@H](CCCNC(=N)N)NC(=O)[C@H](CC(N)=O)NC(=O)[C@H](CC(N)=O)NC(=O)CN)C(C)C)C(=O)N1CCC[C@H]1C(=O)N[C@@H](CCC(N)=O)C(=O)N1CCC[C@H]1C(=O)N[C@@H](CCCNC(=N)N)C(=O)N1CCC[C@H]1C(=O)N[C@@H](CS)C(=O)N[C@@H](Cc1c[nH]cn1)C(=O)N1CCC[C@H]1C(=O)N[C@@H](CCCNC(=N)N)C(=O)N[C@@H](CC(C)C)C(N)=O [compound 60] (H-GNNRPVYIPQPRPCHPRL-NH2; N-terminus assumed) | 250 µg/mL (≈ 118 µM) | 2 | 16 µg/mL (≈ 7.57 µM) | 16 | 20 µg/mL (≈ 9.46 µM) | 0
8 | CC[C@H](C)[C@H](NC(=O)[C@H](Cc1ccc(O)cc1)NC(=O)[C@@H](NC(=O)[C@@H]1CCCN1C(=O)[C@H](CCCNC(=N)N)NC(=O)[C@H](CC(N)=O)NC(=O)[C@H](CC(N)=O)NC(=O)CN)C(C)C)C(=O)N1CCC[C@H]1C(=O)N[C@@H](CCC(N)=O)C(=O)N1CCC[C@H]1C(=O)N[C@@H](CCCNC(=N)N)C(=O)N1CCC[C@H]1C(=O)N1CCC[C@H]1C(=O)N[C@@H](Cc1c[nH]cn1)C(=O)N[C@@H](CS)C(=O)N[C@@H](CCCNC(=N)N)C(=O)N[C@@H](CC(C)C)C(N)=O [compound 61] (H-GNNRPVYIPQPRPPHCRL-NH2; N-terminus assumed) | 125 µg/mL (≈ 59.1 µM) | 4 | 32 µg/mL (≈ 15.1 µM) | 8 |  | 0
9 | CC[C@H](C)[C@H](NC(=O)[C@H](Cc1ccc(O)cc1)NC(=O)[C@@H](NC(=O)[C@@H]1CCCN1C(=O)[C@H](CCCNC(=N)N)NC(=O)[C@H](CC(N)=O)NC(=O)[C@H](CC(N)=O)NC(=O)CN)C(C)C)C(=O)N1CCC[C@H]1C(=O)N[C@@H](CCC(N)=O)C(=O)N1CCC[C@H]1C(=O)N[C@@H](CCCNC(=N)N)C(=O)N1CCC[C@H]1C(=O)N1CCC[C@H]1C(=O)N[C@@H](Cc1c[nH]cn1)C(=O)N1CCC[C@H]1C(=O)N[C@@H](CCCNC(=N)N)C(=O)N[C@@H](CCCNC(=N)N)C(N)=O [compound 62] (H-GNNRPVYIPQPRPPHPRR-NH2; N-terminus assumed) | 125 µg/mL (≈ 58.1 µM) | 4 | 125 µg/mL (≈ 58.1 µM) | 2 | 1.25 to 2.5 µg/mL | 2-4
